Source: patent publication US6559158B1, “Use of methylnaltrexone and related compounds to treat chronic opioid use side affects” (UR Labs, Inc., priority 1997, dated 2003)

Tested on: morphine-induced changes in oral-cecal transit time
Test: Example 4: morphine-induced delay of oral-cecal transit time in subjects given opioids non-chronically
Assay type: in vivo, human
Settings: placebo plus 0.05 mg/kg morphine, 12 subjects, mean±SD; baseline 104.6±31.1; p<0.01
Experimental: Sessions were separated by at least 1 week. Each session lasted approximately 7 hours, and the subjects received one of three injections: (1) placebo plus placebo, (2) placebo plus 0.05 mg/kg morphine, or (3) 0.45 mg/kg methylnaltrexone plus 0.05 mg/kg morphine. Injection I was given at the first session, and the subjects were blinded to the medication. Injections 2 and 3 were given in a random order, and the subjects and observers were blinded to the medication. Injection assignments were prepared by random selection on a computer and were sealed in envelopes.
After completion of the above three injections, we asked six of the subjects, beginning with those who had completed the study last, to return for a fourth injection (0.45 mg/kg methylnaltrexone plus 0.1 mg/kg morphine). This was done to evaluate the effects of methylnaltrexone with a higher does of morphine.
Results of the hydrogen breath test after different injections were analyzed with the use of the Wilcoxon matched-pairs signed-rank test, with p<0.05 considered to be statistically significant.

## CN1CC[C@]23c4c5ccc(O)c4O[C@H]2[C@@H](O)C=C[C@H]3[C@H]1C5.O=S(=O)(O)O [Morphine, morphine sulfate]
  oral-cecal transit time: 163.3 ± 39.8 min
